Experimental findings from patent publication US8906944B2, “Compounds as tyrosine kinase modulators” (Allergan, Inc., priority 2009, dated 2014) are described below.

Assay [1] has as its target T1, human VEGF receptor (VEGFR-2) (Homo sapiens, UniProt P35968).
T1 construct: The cytoplasmic domain of the human VEGF receptor (VEGFR-2) was expressed; His; made in house; host or cells: insect cells (baculovirus)
The assay can be described thus: VEGFR2 kinase assay. It is filed as biochemical. The settings on record: His-VEGFR-2 cytoplasmic domain, 3.6 μM ATP; Table IV, amide or urea linker; read-out: VEGFR2 Enzyme IC50. The gist of the method: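 His-tagged VEGFR-2 cytoplasmic domain from baculovirus-infected insect cells phosphorylating plate-bound poly-Glu-Tyr (4:1). IC50 from blank-subtracted optical density versus compound concentration.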

The target in a further assay is VEGFR1 (Homo sapiens, UniProt P17948). Kind of assay: VEGFR1 enzyme assay. In kind it is biochemical. Particulars: Table IV, amide or urea linker.
A further assay concerns the target PDGFβ (Homo sapiens, UniProt P09619). The assay can be described thus: PDGFβ enzyme assay. It is filed as biochemical. The settings on record: Table IV, amide or urea linker.
Another assay deals with VEGFR2 (Homo sapiens, UniProt P35968). Kind of assay: VEGF stimulated Ca++ signal in vitro (FLIPR).
Chain of VEGFR2 (P35968 20-1356): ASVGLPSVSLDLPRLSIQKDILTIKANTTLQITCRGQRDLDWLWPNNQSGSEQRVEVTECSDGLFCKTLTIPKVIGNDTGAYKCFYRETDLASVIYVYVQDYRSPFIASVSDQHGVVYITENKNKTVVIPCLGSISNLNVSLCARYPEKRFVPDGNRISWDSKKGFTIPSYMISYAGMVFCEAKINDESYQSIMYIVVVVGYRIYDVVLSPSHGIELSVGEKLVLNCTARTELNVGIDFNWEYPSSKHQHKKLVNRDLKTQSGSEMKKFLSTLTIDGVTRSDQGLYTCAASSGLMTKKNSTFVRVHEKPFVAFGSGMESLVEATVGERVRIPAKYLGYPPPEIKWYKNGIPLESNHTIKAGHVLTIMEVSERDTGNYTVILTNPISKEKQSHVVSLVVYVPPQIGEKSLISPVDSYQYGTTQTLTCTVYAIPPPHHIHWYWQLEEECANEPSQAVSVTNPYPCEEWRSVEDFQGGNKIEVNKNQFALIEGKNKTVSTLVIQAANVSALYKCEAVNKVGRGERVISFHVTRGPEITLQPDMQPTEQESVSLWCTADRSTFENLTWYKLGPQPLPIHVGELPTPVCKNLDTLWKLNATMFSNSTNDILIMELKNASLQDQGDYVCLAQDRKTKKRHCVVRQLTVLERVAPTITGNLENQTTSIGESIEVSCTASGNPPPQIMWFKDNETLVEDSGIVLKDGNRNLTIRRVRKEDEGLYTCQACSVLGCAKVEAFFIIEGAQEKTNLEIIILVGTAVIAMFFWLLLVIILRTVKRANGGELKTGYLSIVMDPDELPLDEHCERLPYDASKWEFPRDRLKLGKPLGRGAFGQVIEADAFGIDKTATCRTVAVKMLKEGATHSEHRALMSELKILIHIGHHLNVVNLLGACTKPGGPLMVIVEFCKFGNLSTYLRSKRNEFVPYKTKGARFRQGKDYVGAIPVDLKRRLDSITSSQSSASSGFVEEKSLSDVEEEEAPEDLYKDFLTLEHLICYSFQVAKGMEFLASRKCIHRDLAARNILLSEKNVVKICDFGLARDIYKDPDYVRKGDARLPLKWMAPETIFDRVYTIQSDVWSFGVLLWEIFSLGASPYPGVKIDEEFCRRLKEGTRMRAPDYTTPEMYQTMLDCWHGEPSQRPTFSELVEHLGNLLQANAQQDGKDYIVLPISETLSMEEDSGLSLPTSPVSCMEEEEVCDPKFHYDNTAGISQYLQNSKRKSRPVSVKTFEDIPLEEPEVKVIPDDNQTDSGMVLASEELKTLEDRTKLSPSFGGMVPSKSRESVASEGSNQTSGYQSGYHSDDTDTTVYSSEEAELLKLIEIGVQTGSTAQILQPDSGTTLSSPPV

T1 sequence (P35968 786-1356 limits assumed): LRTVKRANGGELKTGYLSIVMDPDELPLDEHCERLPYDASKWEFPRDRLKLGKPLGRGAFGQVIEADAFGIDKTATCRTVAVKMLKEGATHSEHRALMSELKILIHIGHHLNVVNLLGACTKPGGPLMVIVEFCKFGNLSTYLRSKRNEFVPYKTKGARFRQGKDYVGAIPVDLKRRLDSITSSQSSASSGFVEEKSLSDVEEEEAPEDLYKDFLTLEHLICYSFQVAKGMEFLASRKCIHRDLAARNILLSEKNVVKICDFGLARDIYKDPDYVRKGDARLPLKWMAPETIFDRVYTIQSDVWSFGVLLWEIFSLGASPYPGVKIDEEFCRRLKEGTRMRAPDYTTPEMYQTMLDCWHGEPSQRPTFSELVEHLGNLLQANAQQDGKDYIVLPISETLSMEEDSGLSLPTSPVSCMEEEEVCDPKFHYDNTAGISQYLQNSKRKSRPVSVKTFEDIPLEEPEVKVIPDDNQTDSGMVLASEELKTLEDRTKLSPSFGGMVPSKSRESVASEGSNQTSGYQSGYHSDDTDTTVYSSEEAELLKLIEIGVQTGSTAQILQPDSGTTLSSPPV
Chain of PDGFβ (P09619 33-1106): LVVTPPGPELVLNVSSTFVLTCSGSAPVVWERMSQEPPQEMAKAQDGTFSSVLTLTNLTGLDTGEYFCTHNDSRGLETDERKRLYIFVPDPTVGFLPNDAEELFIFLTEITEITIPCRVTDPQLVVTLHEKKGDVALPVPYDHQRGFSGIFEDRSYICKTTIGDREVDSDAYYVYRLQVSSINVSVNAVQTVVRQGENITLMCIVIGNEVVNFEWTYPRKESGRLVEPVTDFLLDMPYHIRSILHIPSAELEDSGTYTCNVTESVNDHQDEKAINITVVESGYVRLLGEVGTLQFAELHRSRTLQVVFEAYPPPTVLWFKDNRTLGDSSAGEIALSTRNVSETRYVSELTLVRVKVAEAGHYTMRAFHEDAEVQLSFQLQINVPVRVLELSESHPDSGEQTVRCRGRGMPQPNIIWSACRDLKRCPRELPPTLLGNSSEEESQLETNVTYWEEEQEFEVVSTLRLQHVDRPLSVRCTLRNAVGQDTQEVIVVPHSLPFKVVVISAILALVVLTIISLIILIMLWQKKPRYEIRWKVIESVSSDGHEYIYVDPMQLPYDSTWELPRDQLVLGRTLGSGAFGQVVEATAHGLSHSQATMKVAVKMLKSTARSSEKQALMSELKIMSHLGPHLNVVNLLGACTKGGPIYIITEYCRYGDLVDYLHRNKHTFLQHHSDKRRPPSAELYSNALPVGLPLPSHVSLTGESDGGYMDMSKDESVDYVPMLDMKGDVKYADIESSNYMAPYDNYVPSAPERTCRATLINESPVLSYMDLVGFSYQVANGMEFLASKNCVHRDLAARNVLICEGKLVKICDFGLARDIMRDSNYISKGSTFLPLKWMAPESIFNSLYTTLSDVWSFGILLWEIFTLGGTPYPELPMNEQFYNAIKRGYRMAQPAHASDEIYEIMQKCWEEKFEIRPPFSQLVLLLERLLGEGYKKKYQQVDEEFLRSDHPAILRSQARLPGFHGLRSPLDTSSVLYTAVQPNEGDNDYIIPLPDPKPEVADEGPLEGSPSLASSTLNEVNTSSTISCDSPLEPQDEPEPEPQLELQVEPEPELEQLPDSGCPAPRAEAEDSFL
Chain of VEGFR1 (P17948 27-1338, species assumed): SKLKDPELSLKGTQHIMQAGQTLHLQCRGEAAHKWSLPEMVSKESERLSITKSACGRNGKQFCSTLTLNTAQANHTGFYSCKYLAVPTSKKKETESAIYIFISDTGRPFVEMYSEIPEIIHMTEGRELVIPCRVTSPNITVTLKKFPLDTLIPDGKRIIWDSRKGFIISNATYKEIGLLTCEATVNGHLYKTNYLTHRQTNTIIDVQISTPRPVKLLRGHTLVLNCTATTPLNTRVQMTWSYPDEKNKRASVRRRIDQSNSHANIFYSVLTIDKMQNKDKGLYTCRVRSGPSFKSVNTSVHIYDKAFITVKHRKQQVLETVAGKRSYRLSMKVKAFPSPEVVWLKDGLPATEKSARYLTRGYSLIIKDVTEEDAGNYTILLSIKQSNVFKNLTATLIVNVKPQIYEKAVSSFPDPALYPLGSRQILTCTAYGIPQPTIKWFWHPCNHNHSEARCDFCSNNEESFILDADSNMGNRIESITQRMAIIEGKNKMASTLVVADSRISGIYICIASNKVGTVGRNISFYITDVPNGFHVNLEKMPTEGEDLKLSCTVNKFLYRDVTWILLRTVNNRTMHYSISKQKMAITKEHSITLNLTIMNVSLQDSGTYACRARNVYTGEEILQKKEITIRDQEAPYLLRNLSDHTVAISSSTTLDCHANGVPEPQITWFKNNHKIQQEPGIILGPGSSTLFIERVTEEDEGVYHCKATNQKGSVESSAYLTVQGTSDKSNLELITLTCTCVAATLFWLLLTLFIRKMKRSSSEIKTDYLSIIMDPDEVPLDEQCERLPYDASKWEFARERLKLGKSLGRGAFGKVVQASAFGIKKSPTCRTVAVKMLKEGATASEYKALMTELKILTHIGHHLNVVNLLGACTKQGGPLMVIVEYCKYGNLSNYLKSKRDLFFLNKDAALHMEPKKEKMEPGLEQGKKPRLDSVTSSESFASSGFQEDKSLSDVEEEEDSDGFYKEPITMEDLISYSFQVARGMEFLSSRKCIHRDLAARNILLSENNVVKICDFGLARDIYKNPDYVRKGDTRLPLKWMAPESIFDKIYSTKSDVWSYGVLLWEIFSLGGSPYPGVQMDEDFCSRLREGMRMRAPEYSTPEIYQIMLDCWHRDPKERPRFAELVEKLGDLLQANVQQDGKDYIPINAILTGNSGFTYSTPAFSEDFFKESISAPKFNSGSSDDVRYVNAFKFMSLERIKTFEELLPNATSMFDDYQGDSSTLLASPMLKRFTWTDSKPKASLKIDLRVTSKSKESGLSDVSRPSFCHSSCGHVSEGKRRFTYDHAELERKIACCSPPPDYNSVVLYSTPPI

`COC(=O)[C@@H]1C[C@@H](O)CN1CCNC(=O)c1c[nH]c(-c2cc(Oc3ccc(NC(=O)Nc4cc(C)ccc4F)cc3)ccn2)c1` (relative stereo) [Example 161, methyl rel-(2R,4S)-1-(2-{[(5-{4-[4-({[(2-fluoro-5-methylphenyl)amino]carbonyl}amino)phenoxy]pyridin-2-yl}-1H-pyrrol-3-yl)carbonyl]amino}ethyl)-4-hydroxypyrrolidine-2-carboxylate]: the IC50 turned out to be 9 nM in assay [1], 9 nM at VEGFR1, 20 nM against PDGFβ and 10 nM against VEGFR2.

Regarding `COC(=O)[C@@H]1C[C@@H](O)CN1CCCNC(=O)c1c[nH]c(-c2cc(Oc3ccc(NC(=O)Nc4cc(C)ccc4F)cc3)ccn2)c1` (relative stereo) [Example 164, methyl rel-(2R,4S)-1-(3-{[(5-{4-[4-({[(2-fluoro-5-methylphenyl)amino]carbonyl}amino)phenoxy]pyridin-2-yl}-1H-pyrrol-3-yl)carbonyl]amino}propyl)-4-hydroxypyrrolidine-2-carboxylate], the IC50 worked out at 9 nM in assay [1], 10 nM on VEGFR1, 17 nM on PDGFβ and 5 nM against VEGFR2.

For the molecule `COC(=O)[C@@H]1C[C@@H](O)CN1CCCNC(=O)c1c[nH]c(-c2cc(Oc3ccc(NC(=O)Nc4cc(C)ccc4F)c(F)c3)ccn2)c1` (relative stereo) [Example 217, methyl rel-(2R,4S)-1-(3-{[(5-{4-[3-fluoro-4-({[(2-fluoro-5-methylphenyl)amino]carbonyl}amino)phenoxy]pyridin-2-yl}-1H-pyrrol-3-yl)carbonyl]amino}propyl)-4-hydroxypyrrolidine-2-carboxylate], the IC50 in assay [1] came out at 5 nM; against VEGFR1, 10 nM; at PDGFβ it was 21 nM; on VEGFR2, 10 nM.

Turning to `COC(=O)CNCCCNC(=O)c1c[nH]c(-c2cc(Oc3ccc(NC(=O)Nc4cc(C)ccc4F)cc3)ccn2)c1` [Example 154, methyl [(3-{[(5-{4-[4-({[(2-fluoro-5-methylphenyl)amino]carbonyl}amino)phenoxy]pyridin-2-yl}-1H-pyrrol-3-yl)carbonyl]amino}propyl)amino]acetate], the IC50 worked out at 7 nM in assay [1], 8 nM on VEGFR1, 15 nM at PDGFβ and 14 nM against VEGFR2.

As to `COC(=O)CNCCNC(=O)c1c[nH]c(-c2cc(Oc3ccc(NC(=O)Nc4cc(C)ccc4F)cc3)ccn2)c1` [Example 155, methyl [(2-{[(5-{4-[4-({[(2-fluoro-5-methylphenyl)amino]carbonyl}amino)phenoxy]pyridin-2-yl}-1H-pyrrol-3-yl)carbonyl]amino}ethyl)amino]acetate], the IC50 in assay [1] came out at 8 nM; against VEGFR1 it was 7 nM; at PDGFβ, 20 nM; on VEGFR2, 4 nM.

For the molecule `COC(=O)CN(CCNC(=O)c1c[nH]c(-c2cc(Oc3ccc(NC(=O)Nc4cc(C)ccc4F)cc3)ccn2)c1)CC(=O)OC` [Example 156, dimethyl 2,2′-[(2-{[(5-{4-[4-({[(2-fluoro-5-methylphenyl)amino]carbonyl}amino)phenoxy]pyridin-2-yl}-1H-pyrrol-3-yl)carbonyl]amino}ethyl)imino]diacetate], the IC50 in assay [1] was determined as 11 nM; at VEGFR1 it was 8 nM; on PDGFβ it was 31 nM; against VEGFR2, 9 nM.

In the case of `CCOC(=O)CN1CCN(CCNC(=O)c2c[nH]c(-c3cc(Oc4ccc(NC(=O)Nc5cc(C)ccc5F)cc4)ccn3)c2)CC1` [Example 157, ethyl [4-(2-{[(5-{4-[4-({[(2-fluoro-5-methylphenyl)amino]carbonyl}amino)phenoxy]pyridin-2-yl}-1H-pyrrol-3-yl)carbonyl]amino}ethyl)piperazin-1-yl]acetate], the IC50 in assay [1] was 10 nM; against VEGFR1, 8 nM; against PDGFβ, 39 nM; at VEGFR2 it was 3 nM.

As for `COC(=O)[C@@H]1CCCN1CCCNC(=O)c1c[nH]c(-c2cc(Oc3ccc(F)c(NC(=O)c4occc4C)c3)ccn2)c1` [Example 188, methyl 1-[3-({[5-(4-{4-fluoro-3-[(3-methyl-2-furoyl)amino]phenoxy}pyridin-2-yl)-1H-pyrrol-3-yl]carbonyl}amino)propyl]pyrrolidine-2-carboxylate], the IC50 in assay [1] was found to be 27 nM; on VEGFR1, 32 nM; at VEGFR2, 5 nM.

In the case of `Cc1ccoc1C(=O)Nc1cc(Oc2ccnc(-c3cc(C(=O)NCCCN4CCC(O)CC4)c[nH]3)c2)ccc1F` [Example 189, 5-(4-{4-fluoro-3-[(3-methyl-2-furoyl)amino]phenoxy}pyridin-2-yl)-N-[3-(4-hydroxypiperidin-1-yl)propyl]-1H-pyrrole-3-carboxamide], the IC50 in assay [1] turned out to be 34 nM; against VEGFR1 it was 37 nM; against VEGFR2 it was 15 nM.

For `Cc1ccoc1C(=O)Nc1cc(Oc2ccnc(-c3cc(C(=O)NCCCN4CCN(C)CC4)c[nH]3)c2)ccc1F` [Example 193, 5-(4-{4-fluoro-3-[(3-methyl-2-furoyl)amino]phenoxy}pyridin-2-yl)-N-[3-(4-methylpiperazin-1-yl)propyl]-1H-pyrrole-3-carboxamide], the IC50 in assay [1] was determined as 31 nM; against VEGFR1, 35 nM; at VEGFR2, 11 nM.

Take `COCCOC(=O)CCCNC(=O)c1c[nH]c(-c2cc(Oc3ccc(NC(=O)Nc4cc(C)ccc4F)cc3)ccn2)c1` [Example 233, 2-methoxyethyl 4-{[(5-{4-[4-({[(2-fluoro-5-methylphenyl)amino]carbonyl}amino)phenoxy]pyridin-2-yl}-1H-pyrrol-3-yl)carbonyl]amino}butanoate]: the IC50 came to 9 nM in assay [1], 22 nM at PDGFβ and 5 nM on VEGFR2.

With `Cc1cccc(NC(=O)Nc2ccc(Oc3ccnc(-c4cc(C(=O)NN)c[nH]4)c3)cc2)c1` [Example 238, 1-[4-({2-[4-(hydrazinocarbonyl)-1H-pyrrol-2-yl]pyridin-4-yl}oxy)phenyl]-3-(3-methylphenyl)urea], the IC50 in assay [1] is 19 nM; at PDGFβ it was 28 nM; against VEGFR2, 4 nM.

For the molecule `Cc1cccc(NC(=O)Nc2ccc(Oc3ccnc(-c4cc(C(=O)NCCCN5CCOCC5)c[nH]4)c3)cc2)c1` [Example 239, 5-{4-[4-({[(3-methylphenyl)amino]carbonyl}amino)phenoxy]pyridin-2-yl}-N-(3-morpholin-4-ylpropyl)-1H-pyrrole-3-carboxamide], the concentration for half-maximal inhibition (IC50) in assay [1] turned out to be 7 nM; against PDGFβ, 16 nM; against VEGFR2, 2 nM.

Turning to `CCNC(=O)[C@H](CCC(=O)OC(C)(C)C)NC(=O)c1c[nH]c(-c2cc(Oc3cc(C(=O)Nc4cc(C)ccc4F)ccc3F)ccn2)c1` [Example 256, tert-butyl 5-(ethylamino)-4-[({5-[4-(2-fluoro-5-{[(2-fluoro-5-methylphenyl)amino]carbonyl}phenoxy)pyridin-2-yl]-1H-pyrrol-3-yl}carbonyl)amino]-5-oxopentanoate], the IC50 in assay [1] amounted to 55 nM; at VEGFR1, 24 nM; on PDGFβ, 167 nM.

`Cc1ccc(F)c(NC(=O)c2ccc(F)c(Oc3ccnc(-c4cc(C(=O)N[C@@H](CCC(=O)OC(C)(C)C)C(=O)O)c[nH]4)c3)c2)c1` [Example 257, 5-tert-butoxy-2-[({5-[4-(2-fluoro-5-{[(2-fluoro-5-methylphenyl)amino]carbonyl}phenoxy)pyridin-2-yl]-1H-pyrrol-3-yl}carbonyl)amino]-5-oxopentanoic acid]: the IC50 worked out at 53 nM in assay [1], 18 nM against VEGFR1 and 180 nM against PDGFβ.

As to `Cc1ccc(F)c(NC(=O)c2ccc(F)c(Oc3ccnc(-c4cc(C(=O)NCCC(=O)O)c[nH]4)c3)c2)c1` [Example 258, 3-[({5-[4-(2-fluoro-5-{[(2-fluoro-5-methylphenyl)amino]carbonyl}phenoxy)pyridin-2-yl]-1H-pyrrol-3-yl}carbonyl)amino]propanoic acid], the half-inhibitory concentration (IC50) worked out at 36 nM in assay [1], 21 nM against VEGFR1 and 41 nM against PDGFβ.

As for `COC(=O)CCNC(=O)c1c[nH]c(-c2cc(Oc3cc(C(=O)Nc4cc(C)ccc4F)ccc3F)ccn2)c1` [Example 259, methyl 3-[({5-[4-(2-fluoro-5-{[(2-fluoro-5-methylphenyl)amino]carbonyl}phenoxy)pyridin-2-yl]-1H-pyrrol-3-yl}carbonyl)amino]propanoate], the figures for the IC50 (in assay [1]; against VEGFR1; on PDGFβ) were 35 nM, 23 nM and 47 nM, respectively.

Regarding `Cc1ccc(F)c(NC(=O)Nc2ccc(Oc3ccnc(-c4csc(C(=O)NCCC(=O)O)c4)c3)cc2)c1` [Example 278, 3-{[(4-{4-[4-({[(2-fluoro-5-methylphenyl)amino]carbonyl}amino)phenoxy]pyridin-2-yl}-2-thienyl)carbonyl]amino}propanoic acid], the IC50 turned out to be 14 nM in assay [1], 15 nM against VEGFR1 and 16 nM at PDGFβ.

As to `COC(=O)CCNC(=O)c1cc(-c2cc(Oc3ccc(NC(=O)Nc4cc(C)ccc4F)cc3)ccn2)cs1` [Example 279, methyl 3-{[(4-{4-[4-({[(2-fluoro-5-methylphenyl)amino]carbonyl}amino)phenoxy]pyridin-2-yl}-2-thienyl)carbonyl]amino}propanoate], the IC50 was 21 nM in assay [1], 23 nM on PDGFβ and 1 nM at VEGFR2.
